Measurements taken from the supplement of paper PMC5908809.

How the values were obtained:
[1] = tested on: normal NK cells expanded with K562-aAPC; test: percent inhibition of viability; higher = more inhibition; settings: 72 h, IL-2 2.5 ng/mL
Method: (§1)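 Drug sensitivity and resistance testing on K562-aAPC-expanded normal NK cells: 5 concentrations (10-fold steps over a 10,000-fold range), 72 h at 37 °C, viability by CellTiter-Glo normalised to DMSO and benzethonium chloride controls; DSS from the fitted curve.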

[2] = tested on: normal primary NK cells, pool 1 (3 donors) (IL-2 2.5 ng/mL); test: drug sensitivity score (DSS) (DSS units); higher = more sensitive; extreme values may be limits of the assay; settings: 72 h
NK-92 (IL-2 2.5 ng/mL) [3] = test: as above; settings: 72 h
IMC-1 (IL-2 20 ng/mL) [4] = test: as above; settings: 72 h
DERL-7 (IL-2 2.5 ng/mL) [5] = test: as above; settings: 72 h
SNK-6 (IL-2 2.5 ng/mL) [6] = test: as above; settings: 72 h
[7] = tested on: normal primary NK cells, pool 3 (3 donors) (IL-2 2.5 ng/mL); test: as above; settings: 72 h
KAI3 (IL-2 2.5 ng/mL) [8] = test: as above; settings: 72 h
NK-YS (IL-2 2.5 ng/mL) [9] = test: as above; settings: 72 h
[10] = tested on: normal primary NK cells, pool 1 (3 donors), resting (IL-2 0 ng/mL); test: as above; settings: 72 h
NKL (IL-2 2.5 ng/mL) [11] = test: as above; settings: 72 h
YT (IL-2 2.5 ng/mL) [12] = test: as above; settings: 72 h
KHYG-1 (IL-2 2.5 ng/mL) [13] = test: as above; settings: 72 h
[14] = tested on: normal primary NK cells, pool 2 (3 donors) (IL-2 2.5 ng/mL); test: as above; settings: 72 h
[15] = tested on: normal primary NK cells, pool 1 (3 donors) (IL-2 2.5 ng/mL); test: percent inhibition of viability; higher = more inhibition; settings: 72 h
NK-92 (IL-2 2.5 ng/mL) [16] = test: as above; settings: 72 h
IMC-1 (IL-2 20 ng/mL) [17] = test: as above; settings: 72 h
DERL-7 (IL-2 2.5 ng/mL) [18] = test: as above; settings: 72 h
SNK-6 (IL-2 2.5 ng/mL) [19] = test: as above; settings: 72 h
[20] = tested on: normal primary NK cells, pool 3 (3 donors) (IL-2 2.5 ng/mL); test: as above; settings: 72 h
KAI3 (IL-2 2.5 ng/mL) [21] = test: as above; settings: 72 h
NK-YS (IL-2 2.5 ng/mL) [22] = test: as above; settings: 72 h
[23] = tested on: normal primary NK cells, pool 1 (3 donors), resting (IL-2 0 ng/mL); test: as above; settings: 72 h
NKL (IL-2 2.5 ng/mL) [24] = test: as above; settings: 72 h
YT (IL-2 2.5 ng/mL) [25] = test: as above; settings: 72 h
KHYG-1 (IL-2 2.5 ng/mL) [26] = test: as above; settings: 72 h
[27] = tested on: normal primary NK cells, pool 2 (3 donors) (IL-2 2.5 ng/mL); test: as above; settings: 72 h
[28] = tested on: normal NK cells expanded with K562-aAPC; test: drug sensitivity score (DSS) (DSS units); higher = more sensitive; extreme values may be limits of the assay; settings: 72 h; IL-2 2.5 ng/mL
Method: as §1

O=C(/C=C/c1cccnc1)NCCCCC1CCN(C(=O)c2ccccc2)CC1 [Daporinad] (max concentration tested 1000 nM)
percent inhibition of viability [%]
Settings	0.1 nM	1 nM	10 nM	100 nM	1000 nM
DERL-7 (IL-2 2.5 ng/mL) [18]	-1.42	36.4	98.7	99.8	101
IMC-1 (IL-2 20 ng/mL) [17]	-4.3	-0.58	95.2	101	99.6
KAI3 (IL-2 2.5 ng/mL) [21]	0.04	4.42	89.6	104	107
KHYG-1 (IL-2 2.5 ng/mL) [26]	-4.62	0.47	102	108	110
NK-92 (IL-2 2.5 ng/mL) [16]	-12.4	-11	78.5	107	110
NK-YS (IL-2 2.5 ng/mL) [22]	-0.02	65.7	101	107	109
NKL (IL-2 2.5 ng/mL) [24]	-7.99	8.6	96.8	106	109
SNK-6 (IL-2 2.5 ng/mL) [19]	-2.25	67.5	98.8	101	101
YT (IL-2 2.5 ng/mL) [25]	-3.84	3.35	72	106	109
[1]	-5.42	-8.02	95.3	98.9	99.5
[15]	3.25	78.4	97.4	98.2	98.6
[20]	0.86	57.3	98.6	99.3	100
[23]	19.1	78.8	93.6	93.4	94.4
[27]	1.47	71.4	96.2	96.4	95.7

Settings	drug sensitivity score
DERL-7 (IL-2 2.5 ng/mL) [5]	35.4
IMC-1 (IL-2 20 ng/mL) [4]	29.8
KAI3 (IL-2 2.5 ng/mL) [8]	29.3
KHYG-1 (IL-2 2.5 ng/mL) [13]	30.7
NK-92 (IL-2 2.5 ng/mL) [3]	26.9
NK-YS (IL-2 2.5 ng/mL) [9]	38.1
NKL (IL-2 2.5 ng/mL) [11]	31.6
SNK-6 (IL-2 2.5 ng/mL) [6]	38.3
YT (IL-2 2.5 ng/mL) [12]	26.6
[2]	39.6
[7]	37.3
[10]	40.4
[14]	37.9
[28]	29.2
